These results are taken from ChEMBL document CHEMBL1128935, “Synthesis and antibacterial, activity of 4-ureido trinems” (1996).

Common to all, as to assay type: functional
For test [1], the system named is Staphylococcus aureus. Kind of test: In vitro antibacterial activity against Staphylococcus aureus 853.
The test system of test [2] is Pseudomonas aeruginosa. The experiment in a line: In vitro antibacterial activity against Pseudomonas aeruginosa P. aeruginosa 1911.
The subject of test [3] is Streptococcus pneumoniae. Kind of test: In vitro antibacterial activity against Streptococcus pneumoniae 3512.
The subject of test [4] is Clostridium perfringens. The experiment in a line: In vitro antibacterial activity against Clostridium perfringens 615.
For test [5], the system named is Pseudomonas aeruginosa. The experiment in a line: In vitro antibacterial activity against Pseudomonas aeruginosa 2032 WT.
Test [6] relates to Escherichia coli. Kind of test: In vitro antibacterial activity against Escherichia coli 1850 WT.
Test [7] relates to Bacteroides fragilis. The experiment in a line: In vitro antibacterial activity against Bacteroides fragilis 2017.
Test [8] concerns Escherichia coli. The experiment in a line: In vitro antibacterial activity against Escherichia coli 1919 PM.

Values after ≈ are worked out from the molar mass of the structure shown.

As usually defined, the MIC is the lowest concentration that inhibits growth of the organism. The low end stands for a more susceptible organism, the high end for a less susceptible organism. On to `C[C@@H](O)[C@H]1C(=O)N2C(C(=O)[O-])=C3[C@H](CCC[C@@H]3N(C)C(=O)NCCO)[C@H]12.[Na+]`, for which the MIC in test [1] was 0.25 µg/mL; in test [2], 16 µg/mL; in test [3] it was less than 0.12 µg/mL; in test [4] it was less than 0.12 µg/mL; in test [5], 8 µg/mL; in test [6], 0.5 µg/mL. Besides, the MIC in test [7] was 0.25 µg/mL; in test [8], less than 0.12 µg/mL.
Regarding `C[C@@H](O)[C@H]1C(=O)N2C(C(=O)[O-])=C3[C@H](CCC[C@@H]3N(C)C(=O)NC(C)(C)C)[C@H]12.[Na+]`, the MIC in test [1] was 0.5 µg/mL; in test [2] it was 16 µg/mL; in test [3], less than 0.12 µg/mL; in test [4] it was less than 0.12 µg/mL; in test [5], 2 µg/mL; in test [6], 4 µg/mL. In addition, the minimal inhibitory concentration (MIC) in test [7] and in test [8] was 0.5 µg/mL each time.
Turning to `CCNC(=O)N(C)[C@H]1CCC[C@H]2C1=C(C(=O)[O-])N1C(=O)[C@H]([C@@H](C)O)[C@@H]21.[Na+]`, the minimal inhibitory concentration (MIC) in test [1] is 0.25 µg/mL; in test [2], 16 µg/mL; in test [3], less than 0.12 µg/mL; in test [4] it was less than 0.12 µg/mL; in test [5], 4 µg/mL; in test [6], 2 µg/mL. Further, the MIC came to 0.5 µg/mL in test [7] and 0.25 µg/mL in test [8].
As for `C[C@@H](O)[C@H]1C(=O)N2C(C(=O)[O-])=C3[C@H](CCC[C@@H]3N(C)C(N)=O)[C@H]12.[Na+]`, the MIC in test [1] is less than 0.12 µg/mL; in test [2], 8 µg/mL; in test [3] it was less than 0.12 µg/mL; in test [4] it was less than 0.12 µg/mL; in test [5] it was 1 µg/mL; in test [6], 0.25 µg/mL. Also, the minimal inhibitory concentration (MIC) in test [7] and in test [8] was less than 0.12 µg/mL in each case.
With `C[C@@H](O)[C@H]1C(=O)N2C(C(=O)O)=C(SCCNC=N)C[C@H]12` [IMIPENEM ANHYDROUS], the MIC in test [1] was 0.1 µg/mL (≈ 0.334 µM); in test [2] it was 4 µg/mL (≈ 13.4 µM); in test [3], less than 0.01 µg/mL; in test [4], 0.03 µg/mL (≈ 0.1 µM); in test [5] it was 4 µg/mL (≈ 13.4 µM); in test [6], 0.5 µg/mL (≈ 1.67 µM). Further, the results for the minimal inhibitory concentration (MIC) in test [7] and in test [8] were 0.06 µg/mL (≈ 0.2 µM) and 0.5 µg/mL (≈ 1.67 µM), respectively.
As for `CO[C@H]1CCC[C@H]2C1=C(C(=O)[O-])N1C(=O)[C@H]([C@@H](C)O)[C@@H]21.[Na+]` [SANFETRINEM SODIUM], the MIC in test [1] was 0.25 µg/mL; in test [2], more than 32 µg/mL; in test [3] it was less than 0.01 µg/mL; in test [4] it was 0.03 µg/mL; in test [5], 16 µg/mL; in test [6] it was 0.5 µg/mL. The MIC amounted to 0.06 µg/mL in test [7] and 0.5 µg/mL in test [8].
